Reference: article PMC6780063 (Marine Drugs, 2019)
Residues, ends and D or L forms follow the SMILES beside them.

Target: α1β1γδ nAChR (Homo sapiens, UniProt P02708+P07510+P11230+Q07001)
Assay: cell-based
Format: cell-based

α1β1γδ nAChR, sequence (P02708 21-457 limits assumed): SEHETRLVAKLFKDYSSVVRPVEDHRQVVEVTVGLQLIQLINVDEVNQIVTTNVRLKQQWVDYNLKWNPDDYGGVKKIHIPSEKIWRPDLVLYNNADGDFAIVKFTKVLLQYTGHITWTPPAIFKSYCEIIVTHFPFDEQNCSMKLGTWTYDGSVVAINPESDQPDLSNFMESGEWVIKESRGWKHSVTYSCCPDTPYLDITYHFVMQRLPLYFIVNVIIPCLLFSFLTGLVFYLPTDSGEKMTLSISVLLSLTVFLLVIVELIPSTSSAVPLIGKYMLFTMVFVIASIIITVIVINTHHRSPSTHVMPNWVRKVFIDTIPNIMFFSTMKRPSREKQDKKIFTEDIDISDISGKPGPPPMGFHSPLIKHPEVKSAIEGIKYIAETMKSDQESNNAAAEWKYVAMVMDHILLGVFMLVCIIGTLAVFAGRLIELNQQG
α1β1γδ nAChR, sequence (P11230 24-501 partner limits assumed): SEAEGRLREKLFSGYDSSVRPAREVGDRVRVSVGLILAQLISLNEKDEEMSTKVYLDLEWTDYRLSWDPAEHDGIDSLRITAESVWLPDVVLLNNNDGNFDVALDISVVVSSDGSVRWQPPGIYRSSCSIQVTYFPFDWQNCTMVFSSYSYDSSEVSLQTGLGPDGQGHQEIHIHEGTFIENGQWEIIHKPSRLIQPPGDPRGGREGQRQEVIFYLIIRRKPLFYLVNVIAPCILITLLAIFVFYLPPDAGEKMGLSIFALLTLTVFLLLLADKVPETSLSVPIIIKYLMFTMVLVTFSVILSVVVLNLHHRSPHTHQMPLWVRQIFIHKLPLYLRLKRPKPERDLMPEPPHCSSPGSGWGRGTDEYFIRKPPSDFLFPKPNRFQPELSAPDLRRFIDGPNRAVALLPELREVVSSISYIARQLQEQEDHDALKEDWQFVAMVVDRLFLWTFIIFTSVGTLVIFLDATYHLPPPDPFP
α1β1γδ nAChR, sequence (P07510 23-517 limits assumed): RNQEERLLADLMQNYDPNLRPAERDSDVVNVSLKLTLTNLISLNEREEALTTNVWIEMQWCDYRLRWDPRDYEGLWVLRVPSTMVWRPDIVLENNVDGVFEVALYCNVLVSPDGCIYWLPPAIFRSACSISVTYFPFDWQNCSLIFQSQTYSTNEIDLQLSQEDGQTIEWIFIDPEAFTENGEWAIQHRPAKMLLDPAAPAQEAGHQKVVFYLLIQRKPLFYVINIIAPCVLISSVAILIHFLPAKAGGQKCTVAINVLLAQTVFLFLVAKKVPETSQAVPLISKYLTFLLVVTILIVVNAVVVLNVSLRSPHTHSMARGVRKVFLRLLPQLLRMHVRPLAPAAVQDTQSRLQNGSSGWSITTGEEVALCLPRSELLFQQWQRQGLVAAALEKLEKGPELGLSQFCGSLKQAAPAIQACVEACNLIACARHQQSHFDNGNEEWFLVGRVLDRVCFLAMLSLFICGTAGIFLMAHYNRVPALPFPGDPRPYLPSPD
α1β1γδ nAChR, sequence (Q07001 22-517 limits assumed): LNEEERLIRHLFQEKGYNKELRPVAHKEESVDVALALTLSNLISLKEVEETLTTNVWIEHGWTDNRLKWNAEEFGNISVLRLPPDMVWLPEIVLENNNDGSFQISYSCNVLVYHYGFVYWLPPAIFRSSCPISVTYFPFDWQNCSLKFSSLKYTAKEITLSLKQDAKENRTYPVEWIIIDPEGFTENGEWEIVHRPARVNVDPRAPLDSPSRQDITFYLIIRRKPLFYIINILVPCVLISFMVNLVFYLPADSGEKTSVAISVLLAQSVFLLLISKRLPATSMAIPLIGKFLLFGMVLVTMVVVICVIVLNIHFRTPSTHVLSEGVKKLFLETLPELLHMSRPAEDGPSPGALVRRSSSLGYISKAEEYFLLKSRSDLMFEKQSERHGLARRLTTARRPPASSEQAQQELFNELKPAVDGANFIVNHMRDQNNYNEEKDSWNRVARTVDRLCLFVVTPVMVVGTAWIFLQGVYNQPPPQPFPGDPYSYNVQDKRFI

CSCC[C@@H]1NC(=O)[C@@H]2CSSC[C@H](NC(=O)[C@H](CCSC)NC(=O)[C@@H](N)CC(=O)O)C(=O)N[C@@H](CSSC[C@@H](C(N)=O)NC(=O)[C@H](CC(N)=O)NC(=O)[C@H](Cc3ccccc3)NC(=O)[C@H](Cc3c[nH]cn3)NC(=O)[C@H](CC(N)=O)NC1=O)C(=O)N[C@@H](Cc1c[nH]cn1)C(=O)N1CCC[C@H]1C(=O)N[C@@H](C)C(=O)N2 [MilIA] (HELM PEPTIDE1{D.M.C.C.H.P.A.C.M.N.H.F.N.C.[am]}$PEPTIDE1,PEPTIDE1,3:R3-8:R3|PEPTIDE1,PEPTIDE1,4:R3-14:R3$$$V2.0)
inhibition of the ACh-evoked current amplitude, α1β1γδ: 20% | IC50 (SEM): 13.1 µM
